Assay results: patent publication US12590108B2, “Boracic acid compound” (Phaeno Therapeutics Co., Ltd, priority 2020, dated 2026)
Like-named read-outs stand apart in the source and are kept apart here.

Key:
[1] = system: Klebsiella pneumoniae ATCC BAA-2470 (NDM-1); test: MIC shift, liquid microdilution, meropenem fixed at 4 μg/mL; format: cell-based; details: K. pneumoniae ATCC BAA-2470, NDM-1
Protocol: (§1) The test compound was tested for minimum inhibitory concentration against three strains of Klebsiella pneumoniae ATCC BAA-1705 (KPC-2), ATCC BAA-2470 (NDM-1), and ARLG-1196 (CTM-1 group, SHV, NDM, TEM), and one strain of Escherichia coli ARLG-2829 (NDM-5, OXA-1). According to the requirements of the Institute of Clinical And Laboratory Standard (CLSI), the minimum inhibitory concentration (MIC) of each drug combination was determined by liquid microdilution method under the premise of fixing the concentration of meropenem at 4 μg/mL.
(§2) Preparation of compound mother plate: On the day of the experiment, the compound to be tested (the final concentration was 0.3125 to 20 μg/mL) and meropenem (the final concentration ranged from 1 to 64 μg/mL) were dissolved in a corresponding solvent (sterile ddH2O or DMSO) to form 100× mother liquors with the highest test concentration, and the compound to be tested and meropenem were then subjected to 2-fold series gradient dilution in a V-bottom 96-well plate to obtain 100× working solutions with the final concentration.
(§3) Preparation of inoculation solution: Fresh bacterial clones were picked from an overnight Mueller Hinton II Agar medium (MHA, Cat. No. 211438, BD BBLTM) plate, suspended in sterilized physiological saline, and adjusted to a concentration of 1×10^8 CFU/mL, and the suspension was further diluted to 5-10^5 CFU/mL with Cation-Adjusted Mueller Hinton II Broth (MHB, Catalog #212332, BD BBLTM).
(§4) Detection of minimum inhibitory concentration (MIC): 1 μL of the compound to be tested and the meropenem working solution were transferred to the corresponding wells to be tested in a round-bottomed 96-well plate (Catalog #3788, Corning), and 98 μL of the inoculation solution was added to the round-bottomed 96-well plate containing drugs, which was an MIC test plate; and after the plate was inverted and cultured at 37° C. for 20-24 h, the MIC value was read, and the minimum inhibitory concentration for inhibiting bacterial growth was defined as MIC.

[2] = system: Escherichia coli ARLG-2829 (NDM-5, OXA-1); test: as above; format: cell-based
Protocol: as §1, §2, §3, §4

[3] = system: Klebsiella pneumoniae ATCC BAA-1705 (KPC-2); test: as above; format: cell-based; details: K. pneumoniae ATCC BAA-1705, KPC-2
Protocol: as §1, §2, §3, §4

[4] = system: Klebsiella pneumoniae ARLG-1196 (CTM-1 group, SHV, NDM, TEM); test: as above; format: cell-based
Protocol: as §1, §2, §3, §4

[5] = Pharmacokinetics of the compound in rats (intravenous and oral); format: in vivo; details: male, SD, plasma, rat; for Vd: read-out: Vdss
Protocol: The pharmacokinetic characteristics of the compound in rodents after intravenous injection and oral administration were tested by standard protocol. Specifically, the fasting SD male rats in the experiment were given the candidate compounds by intravenous injection and oral administration. Both oral preparation and intravenous preparation were prepared into 10 mg/mL or 30 mg/mL clear solutions with physiological saline and were administered by intravenous bolus or gavage for 5 minutes. Plasma samples were collected and analyzed by LC-MS/MS method, and pharmacokinetic parameters were calculated.

[6] = system: Klebsiella pneumoniae NCTC 13439 (VIM); test: MIC shift, liquid microdilution, test compound fixed at 8 μg/mL; format: cell-based; details: NCTC13439, meropenem alone, K. pneumoniae NCTC 13439
Protocol: as §2, §3, §4
(§5) The test compound was tested for minimum inhibitory concentration against 5 strains of Klebsiella pneumoniae ATCC BAA-1705 (KPC-2), ATCC BAA-2470 (NDM-1), ARLG-1196 (CTM-1 group, SHA NDM, TEM), NCTC 13440 (VIM-1), and NCTC 13439 (VIM), and one strain of Escherichia coli ARLG-2829 (NDM-5, OXA-1). According to the requirements of the Institute of Clinical And Laboratory Standard (CLSI), the minimum inhibitory concentration (MIC) of each drug combination was determined by liquid microdilution method under the premise of fixing the concentration of the compound to be tested at 8 μg/mL. The test method was the same as above, and the concentration of meropenem ranged from 0.125 to 8 μg/mL.

[7] = system: Klebsiella pneumoniae ATCC BAA-2470 (NDM-1); test: as above; format: cell-based; details: ATCCBAA2470
Protocol: as §2, §3, §4, §5

[8] = system: Klebsiella pneumoniae ARLG-1196 (CTM-1 group, SHA NDM, TEM); test: as above; format: cell-based; details: meropenem alone, K. pneumoniae ARLG-1196
Protocol: as §2, §3, §4, §5

[9] = system: Escherichia coli ARLG-2829 (NDM-5, OXA-1); test: as above; format: cell-based
Protocol: as §2, §3, §4, §5

[10] = system: Klebsiella pneumoniae ATCC BAA-1705 (KPC-2); test: as above; format: cell-based; details: ATCCBAA1705, meropenem alone, K. pneumoniae ATCC BAA-1705
Protocol: as §2, §3, §4, §5

[11] = system: Klebsiella pneumoniae NCTC 13440 (VIM-1); test: as above; format: cell-based; details: NCTC13440, meropenem alone, K. pneumoniae NCTC 13440
Protocol: as §2, §3, §4, §5

[12] = compound + meropenem fixed at 4 μg/mL
[13] = 100 mg/kg, intravenous bolus 100 mpk
[14] = 300 mg/kg, intravenous bolus 300 mpk

Work on `CCOc1ccc2c(c1C(=O)O)O[B-](O)(O)CO2` [Compound 15] yielded an MIC [1, 12] of 0.625 µg/mL, an MIC ([2]; compound + meropenem fixed at 4 μg/mL, E. coli ARLG-2829 (urine clinical isolate), NDM-5, OXA-1) of 1.25 µg/mL and an MIC [3, 12] of no more than 0.3125 µg/mL. It also gave an MIC ([4]; compound + meropenem fixed at 4 μg/mL, K. pneumoniae ARLG-1196, CTM-1 and isoforms thereof, SHV, NDM, TEM) of 0.625 µg/mL, an AUC(0-t) [5, 13] of 549 µg·h/mL and a C0 [5, 13] of 580 µg/mL. The clearance [5, 13] was 3.02 mL/min/kg, the half-life [5, 13] was 3.9 h and the Vd [5, 13] was 0.583 L/kg. It also gave an AUC(0-t) ([5]; 100 mg/kg, oral 100 mpk) of 278 µg·h/mL, a Cmax ([5]; 100 mg/kg, oral 100 mpk) of 35.2 µg/mL and a Tmax ([5]; 100 mg/kg, oral 100 mpk) of 2 h. The half-life ([5]; 100 mg/kg, oral 100 mpk) was 4.99 h, the bioavailability ([5]; 100 mg/kg, oral 100 mpk, AUC0-inf (100 mpk PO)/AUC0-inf (100 mpk IV)) was 52.2% and the AUC(0-t) [5, 14] was 1160 µg·h/mL. For the same compound, the C0 [5, 14] was 1390 µg/mL, the clearance [5, 14] was 4.29 mL/min/kg and the half-life [5, 14] was 4.56 h. For the same compound, the Vd [5, 14] was 0.96 L/kg.
`C[C@@H](O)[C@H]1C(=O)N2C(C(=O)O)=C(S[C@@H]3CN[C@H](C(=O)N(C)C)C3)[C@H](C)[C@H]12` [Meropenem, meropenem, reference compound] showed an MIC ([1]; Klebsiella pneumoniae, ATCCBAA2470, meropenem alone, read-out: MIC) of 64 µg/mL, an MIC ([2]; Escherichia coli, meropenem alone, E. coli ARLG-2829, read-out: MIC) greater than 64 µg/mL and an MIC ([3]; Klebsiella pneumoniae, ATCCBAA1705, meropenem alone, read-out: MIC) of 32 µg/mL. For the same compound, the MIC ([4]; Klebsiella pneumoniae, meropenem alone, K. pneumoniae ARLG-1196, read-out: MIC) was 64 µg/mL, the MIC [6] was 4 µg/mL and the MIC [7] was 128 µg/mL. For the same compound, the MIC [8] was 64 µg/mL, the MIC [9] was 128 µg/mL and the MIC [10] was 32 µg/mL. The MIC [11] was 16 µg/mL.
